Measured values as given in patent US5371071A, “Peptide and pseudopeptide compounds which are therapeutically active in the blood coagulation cascade” (Adir et Compagnie, priority 1992, dated 1994).

Test: Anticoagulant activity ex vivo, prothrombin time
Assay type: in vivo, OFA rats
Settings: i.v.
Procedure: OFA rats, fasted or otherwise, are anesthetized with pentobarbital (60 mg/kg i.p.). The carotid and the jugular are exposed and catheterized. The catheters are flushed with citrated (1/40) physiological solution. After installation of the catheters, a sample of 1.5 cm^3 of arterial blood is withdrawn into 0.109M citrate (1/9).
30 minutes later, the test product is admini- stered i.v. in a volume of 1 ml.
Arterial blood samples (1.5 ml) are then withdrawn at 1 min 30 sec, 3 min, 5 min, 15 min, 30 min and 60 min.
As each sample is withdrawn, 1.5 ml of citrated physiological solution is reinjected into the animal via the carotid.
The blood tubes are centrifuged for 15 min at 4000 rpm (preparation of plasma).
100 μl of plasma are incubated with 200 μl of neoplastin calcium. The time of onset of the coagulation phenomenon is measured.

hirudin
duration of in vivo activity: 30 min
